Target: T1, Sl-CathL-mutSC
T1 construct: ORF of Sl-CathL-CS (GenBank JZ136744.1) without signal peptide, C-terminal 6x His tag, expressed in P. pastoris KM71H
Assay: fluorogenic protease assay (AMC release), Ki by Morrison equation
Format: biochemical, Sphenophorus levis

SMILES: CC(C)C[C@H](NC(=O)[C@H]1O[C@@H]1C(=O)O)C(=O)NCCCCN=C(N)N [E-64]
- Ki: 38.5 ± 1.2 µM

From PMC8583781, “Identification and Functional Analysis of a Pseudo-Cysteine Protease from the Midgut Transcriptome of Sphenophorus levis” (International Journal of Molecular Sciences, 2021)
